Results: ChEMBL document CHEMBL1201862, “PubChem BioAssay data set” (2004)
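Assay format: 96-well plates, 48-hour exposure. At the GI50, growth is halved.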 Active and inactive are the calls of the source. Cut-off read from the data, not from the text of the source: active = GI50 up to about 1.1 µM and inactive = higher.

Columns and labels:
Experiment in all cases: NCI tumour cell line growth inhibition, 48 h
SN12C = test system: SN12C
NCI-H226 = test system: NCI-H226
DMS-114 = test system: DMS-114
LXFL 529 = test system: LXFL 529
SNB-78 = test system: SNB-78
LOX IMVI = test system: LOX IMVI
ACHN = test system: ACHN
HCT-15 = test system: HCT-15
Malme-3M = test system: Malme-3M
SF-539 = test system: SF-539
DLD-1 = test system: DLD-1
XF498 = test system: XF498
M14 = test system: M14
OVCAR-8 = test system: OVCAR-8
COLO 205 = test system: COLO 205
A498 = test system: A498
M19-MEL = test system: M19-MEL
HL-60 = test system: HL-60
EKVX = test system: EKVX
SF-268 = test system: SF-268
NCI-H23 = test system: NCI-H23
RXF 393 = test system: RXF 393
SR = test system: SR
U-251 = test system: U-251
OVCAR-5 = test system: OVCAR-5
OVCAR-3 = test system: OVCAR-3
SK-MEL-5 = test system: SK-MEL-5
MOLT-4 = test system: MOLT-4
RPMI-8226 = test system: RPMI-8226
SF-295 = test system: SF-295
UACC-62 = test system: UACC-62
NCI-H522 = test system: NCI-H522
CCRF-CEM = test system: CCRF-CEM
CAKI-1 = test system: CAKI-1
HT-29 = test system: HT-29
SK-MEL-28 = test system: SK-MEL-28
RXF 631 = test system: RXF 631
A549 = test system: A549
NCI-H460 = test system: NCI-H460
OVCAR-4 = test system: OVCAR-4
IGROV-1 = test system: IGROV-1
SNB-19 = test system: SNB-19
HCC 2998 = test system: HCC 2998
KM12 = test system: KM12
SK-OV-3 = test system: SK-OV-3
SK-MEL-2 = test system: SK-MEL-2
SNB-75 = test system: SNB-75
TK-10 = test system: TK-10
UO-31 = test system: UO-31
K562 = test system: K562
HOP-62 = test system: HOP-62
786-0 = test system: 786-0
HOP-18 = test system: HOP-18
HOP-92 = test system: HOP-92
HCT-116 = test system: HCT-116
UACC-257 = test system: UACC-257
KM-20L2 = test system: KM-20L2
SW-620 = test system: SW-620
DMS-273 = test system: DMS-273

Measured: GI50

CC(C)=CCC/C(C)=C/CC/C(C)=C/C1CCC(=O)C1(C)C (stereo not drawn)
15.5 µM: HCT-15
inactive: SN12C 16.2 µM | NCI-H226 14.7 µM | DMS-114 14.5 µM | LXFL 529 17.3 µM | SNB-78 22.6 µM | LOX IMVI 15.3 µM | ACHN 16.6 µM | Malme-3M 18.3 µM | SF-539 19.5 µM | DLD-1 17.4 µM | XF498 18.2 µM | M14 19.5 µM | OVCAR-8 19.6 µM | COLO 205 16.2 µM | A498 18.5 µM | M19-MEL 19.2 µM | HL-60 11.6 µM | EKVX 19.7 µM | SF-268 17.1 µM | NCI-H23 20.3 µM | RXF 393 22.1 µM | SR 19.7 µM | U-251 18.1 µM | OVCAR-5 19.1 µM | OVCAR-3 17.1 µM | SK-MEL-5 15.1 µM | MOLT-4 22.8 µM | RPMI-8226 20 µM | SF-295 18.3 µM | UACC-62 19.1 µM | NCI-H522 15.2 µM | CCRF-CEM 17.1 µM | CAKI-1 20.7 µM | HT-29 17.5 µM | SK-MEL-28 22.1 µM | RXF 631 44.6 µM | A549 27 µM | NCI-H460 17.5 µM | OVCAR-4 24.9 µM | IGROV-1 19.1 µM | SNB-19 25.1 µM | HCC 2998 22.9 µM | KM12 16.3 µM | SK-OV-3 30.3 µM | SK-MEL-2 17.4 µM | SNB-75 28.5 µM | TK-10 39.4 µM | UO-31 17 µM | K562 19.8 µM | HOP-62 26.5 µM | 786-0 17.9 µM | HOP-18 22.4 µM | HOP-92 25.9 µM | HCT-116 17 µM | UACC-257 21.3 µM | KM-20L2 16.3 µM

O=C(Nc1cccc(C(F)(F)F)c1)C(=O)C(C(=O)c1ccc(Cl)c(Cl)c1)C1OC(=O)c2ccccc21 (stereo not drawn)
inactive: SN12C 36.6 µM | NCI-H226 19.9 µM | DMS-114 21.6 µM | LXFL 529 28.7 µM | SNB-78 32.4 µM | LOX IMVI 27.3 µM | ACHN 53.2 µM | Malme-3M 15.6 µM | DLD-1 41.9 µM | XF498 > 100 µM | M14 81.1 µM | OVCAR-8 26.5 µM | COLO 205 41.2 µM | A498 21.4 µM | M19-MEL 18.8 µM | HL-60 29.4 µM | EKVX 79.1 µM | SW-620 38.1 µM | SF-268 37.9 µM | NCI-H23 27.4 µM | RXF 393 14.7 µM | SR 15.4 µM | U-251 23.1 µM | OVCAR-5 62.4 µM | OVCAR-3 32.1 µM | MOLT-4 48.9 µM | RPMI-8226 56 µM | UACC-62 28.6 µM | NCI-H522 28.8 µM | CCRF-CEM 28.4 µM | CAKI-1 88.1 µM | HT-29 29.2 µM | RXF 631 39.3 µM | A549 44.2 µM | NCI-H460 31.8 µM | OVCAR-4 40 µM | IGROV-1 39.6 µM | SNB-19 37.8 µM | HCC 2998 28.5 µM | DMS-273 33.9 µM | KM12 47.2 µM | SK-OV-3 > 100 µM | SNB-75 22.7 µM | TK-10 > 100 µM | UO-31 55.1 µM | K562 44 µM | HOP-62 28.3 µM | 786-0 37.7 µM | HOP-18 17.5 µM | HOP-92 26.8 µM | HCT-116 17.5 µM | UACC-257 51.8 µM | KM-20L2 39.4 µM
35 µM: HCT-15

CSc1nnc(CCC(=O)Nc2c(C)cccc2C)o1
50.8 µM: HCT-15
inactive: SN12C > 100 µM | NCI-H226 > 100 µM | DMS-114 > 100 µM | LXFL 529 > 100 µM | SNB-78 > 100 µM | LOX IMVI > 100 µM | Malme-3M > 100 µM | SF-539 > 100 µM | DLD-1 > 100 µM | XF498 > 100 µM | M14 > 100 µM | OVCAR-8 > 100 µM | COLO 205 > 100 µM | A498 > 100 µM | M19-MEL > 100 µM | HL-60 > 100 µM | EKVX > 100 µM | SW-620 > 100 µM | SF-268 > 100 µM | NCI-H23 > 100 µM | RXF 393 > 100 µM | U-251 > 100 µM | OVCAR-5 > 100 µM | OVCAR-3 > 100 µM | SK-MEL-5 > 100 µM | MOLT-4 > 100 µM | RPMI-8226 > 100 µM | SF-295 > 100 µM | UACC-62 > 100 µM | NCI-H522 > 100 µM | CCRF-CEM > 100 µM | CAKI-1 > 100 µM | HT-29 > 100 µM | SK-MEL-28 > 100 µM | RXF 631 > 100 µM | A549 > 100 µM | NCI-H460 > 100 µM | OVCAR-4 > 100 µM | IGROV-1 > 100 µM | SNB-19 > 100 µM | HCC 2998 > 100 µM | KM12 > 100 µM | SK-OV-3 > 100 µM | SK-MEL-2 > 100 µM | SNB-75 91.6 µM | TK-10 > 100 µM | UO-31 > 100 µM | K562 > 100 µM | HOP-62 > 100 µM | 786-0 > 100 µM | HOP-18 > 100 µM | HOP-92 > 100 µM | HCT-116 > 100 µM | UACC-257 > 100 µM | KM-20L2 > 100 µM

CCC(C(=O)c1ccccc1)C(CCCC(=O)Nc1c(C)cccc1C)N=O (stereo not drawn)
inactive: SN12C > 100 µM | NCI-H226 > 100 µM | LXFL 529 > 100 µM | SNB-78 > 100 µM | ACHN > 100 µM | Malme-3M > 100 µM | SF-539 > 100 µM | DLD-1 > 100 µM | XF498 > 100 µM | M14 > 100 µM | OVCAR-8 > 100 µM | COLO 205 > 100 µM | A498 > 100 µM | M19-MEL > 100 µM | HL-60 > 100 µM | EKVX > 100 µM | SW-620 > 100 µM | SF-268 > 100 µM | NCI-H23 > 100 µM | SR > 100 µM | U-251 > 100 µM | OVCAR-5 > 100 µM | OVCAR-3 > 100 µM | SK-MEL-5 > 100 µM | MOLT-4 > 100 µM | RPMI-8226 > 100 µM | SF-295 > 100 µM | UACC-62 > 100 µM | NCI-H522 > 100 µM | CCRF-CEM > 100 µM | CAKI-1 > 100 µM | HT-29 > 100 µM | SK-MEL-28 > 100 µM | RXF 631 > 100 µM | A549 > 100 µM | NCI-H460 > 100 µM | OVCAR-4 > 100 µM | IGROV-1 > 100 µM | SNB-19 > 100 µM | HCC 2998 > 100 µM | DMS-273 > 100 µM | KM12 > 100 µM | SK-OV-3 > 100 µM | SK-MEL-2 > 100 µM | SNB-75 > 100 µM | TK-10 > 100 µM | UO-31 > 100 µM | K562 > 100 µM | HOP-62 > 100 µM | 786-0 > 100 µM | HOP-18 > 100 µM | HOP-92 > 100 µM | HCT-116 > 100 µM | UACC-257 > 100 µM | KM-20L2 > 100 µM
> 100 µM: HCT-15
